According to patent US4816560A, “Partially retro-inverted tuftsin analogues, method for the preparation thereof and pharmaceutical compositions containing them” (priority 1986, dated 1989):

Test system: peritoneal M.phi. from normal C3H/HeN mice
Assay: macrophage (M.phi.) phagocytic stimulation assay (ingestion of killed yeast cells, Zymosan)
Type: cell-based
Text: The compounds of formula I, including the pharmaceutically acceptable esters, amides and salts, are active as immunostimulating agents. […] This assay, carried out in comparison with tuftsin, has been performed according to a modification of the method described by Bar-Shavit et al. in J.Cell.Physiol., 100, p.55 (1979). More particularly, peritoneal M.phi. from normal C3H/HeN mice are harvested by washing of the peritoneal cavity and purified by adherence as described in J.Immunol., 132, p.1987 (1984). Monolayers of 1×10^6 adherent peritoneal cells (95-98% of the monocyte-M.phi. series as judged by morphology and latex phagocytosis) are cultured for 20 h at 37° C. in RPMI-1640 medium supplemented with 50 μg/ml gentamycin, 25 mM HEPES buffer, 2 mM L-glutamine and 10% heat-inactivated fetal bovine serum (FBS). At the end of the incubation, M.phi. are washed and then exposed for 15 minutes at 37° C. to 1.3 ml/plate of culture medium either alone (blank) or containing tuftsin or a compound of the invention at different concentrations. A 1.5×10^8 cells/ml suspension of killed yeast cells (Zymosan)(0.2 ml) is then added to the plates. M.phi. are incubated for 60 minutes at 37° C., then washed, fixed (2% glutaraldehyde in PBS, 30 minutes, 4° C.) and stained. The percentage of phagocyting M.phi. and the number of ingested Zymosan cells is measured with an optical microscope equipped with a 100x immersion objective. In a representative experiment aimed at comparing the activity of tuftsin with that of the corresponding retro-inverso analogue of example 1, it has been observed that all M.phi. were capable of phagocyting zymosan in the above described conditions.
As the poor therapeutical applicability of tuftsin is mainly due to its low stability and to the consequent rapid loss of biological activity, the phagocytosis assay has been repeated comparing the activity of tuftsin and its retro-inverso analogue of example 1, stored for 14 days in solution at 4° C. […] At the concentration of 10^-6 M in fact the compound of Example 1 gave a number of ingested zymosan cells per 100 phagocyting macrophages of 1.8×10^3 (with an immunopotentiating effect corresponding therefore to 136% of the control).

[1] = peptide stored for 14 days in solution at 4° C., concentration 10^-6 M

## {(2RS)-2-[N-(1-amino-2-hydroxy-propyl)carbamyl]-6-amino}-hexanoyl-L-prolyl- L-arginine [Example 1]
Fresh peptide, linearly dependent on peptide concentration
  number of ingested yeast cells (in words): significantly increased
Peptide concentration 3×10^-7 M
  ingested zymosan cells, % of the control: 170 % of the control
Peptide concentration 3×10^-7 M, 15 min exposure, then 60 min with Zymosan at 37° C.
  ingested zymosan cells per 100 macrophages: 2.2×10^3 ingested zymosan cells per 100 macrophages
Peptide concentration 10^-6 M
  ingested zymosan cells per 100 phagocyting macrophages: 2.44×10^3 ingested zymosan cells per 100 phagocyting macrophages
  ingested zymosan cells, % of the control: 188 % of the control
Peptide stored for 14 days in solution at 4° C.
  phagocytosis stimulation (in words): still significant even if less than above
[1]
  immunopotentiating effect, % of the control: 136 % of the control
  ingested zymosan cells per 100 phagocyting macrophages: 1.8×10^3 ingested zymosan cells per 100 phagocyting macrophages
